In one data set the test system is human herpesviruses. Conditions: cited from earlier work.
A further data set deals with HSV-1-Patton. Nature of the data set: Plaque reduction / viral plaque titration, HSV-1-Patton in HFF cells.
Data set [1] concerns HSV mutants lacking the ability to induce DP (DP-mutants). The settings on record: cited from earlier work.
For the next data set, the system named is normal host cells. Conditions: cited from earlier work.
Data set [2] concerns herpes virus-specific DNA-polymerase (DP). Conditions: hypothesis on mode of action; cited from earlier work.
For data set [3], the system named is Cellular TK and DP enzymes. Conditions: cited from earlier work.
Data set [4] deals with herpes virus-specific thymidine kinase (TK). The settings on record: hypothesis on mode of action; cited from earlier work.
In a further data set the test system is HSV-2-EL 1. The settings on record: Table 3, HFF cells, G* 2.0 μg/ml, PAA 76 μg/ml, alone or combined; for Virus titer: no-drug control 170.
The subject of the next data set is HSV-2-EL 3. Nature of the data set: Viral plaque titration, HSV-2-EL 3 in HFF cells. The settings on record: Table 3, G* 2.0 μg/ml, PAA 82 μg/ml, alone or combined; for Virus titer: no-drug control 77.
For the next data set, the system named is HSV-1-227. The experiment in a line: Viral plaque titration, HSV-1-227 in HFF cells. Conditions: Table 3, G* 2.0 μg/ml, PAA 80 μg/ml, alone or combined; for Virus titer: no-drug control 28.
Data set [5] deals with HSV mutants lacking the ability to induce DP (DP-mutants). The experiment in a line: Activity against HSV mutants lacking the ability to induce DP (statement). On the set-up: species or system Herpes simplex virus.
In a further data set the test system is HSV-2-EL 6. The experiment in a line: Viral plaque titration, HSV-2-EL 6 in HFF cells. The settings on record: alone or combined.
A further data set has as its system HSV-2-EL 4. Nature of the data set: Viral plaque titration, HSV-2-EL 4 in HFF cells. Conditions: alone or combined; for Virus titer: no-drug control 750.
The subject of the next data set is HSV-1-EL 11. The settings on record: Table 3, HFF cells, G* 0.4 μg/ml, PAA 25 μg/ml, alone or combined; for Virus titer: no-drug control 8.0.
For data set [6] the following is noted: topical formulation, drug concentrations in excess of 100mM; cited from earlier work.
The mark [7] stands for this setting: Table 1, multiplicity of infection less than one, G* 1.2, BVDU 0.11, ACG 2.0, PAA 250 μg/ml alone, same concentrations in combinations, no-drug control 147.
Setting [8] is: Table 1, ratio of control titer to drug titer, G* 1.2, BVDU 0.11, ACG 2.0, PAA 250 μg/ml alone, same concentrations in combinations.
The mark [9] stands for this setting: Table 2, G* 0.7 μg/ml, PFA 80 μg/ml, alone or combined.
Where [10] appears, read: Table 2, G* 0.7 μg/ml, PFA 80 μg/ml, alone or combined, no-drug control 3400.
Where [11] appears, read: Table 2, G* 0.7 μg/ml, PFA 80 μg/ml.
Where [12] appears, read: Table 2, G* 0.7 μg/ml, PFA 80 μg/ml, no-drug control 150.
[13] abbreviates: Table 3, G* 0.6 μg/ml, PAA 90 μg/ml.
[14] abbreviates: Table 3, G* 0.6 μg/ml, PAA 90 μg/ml, no-drug control 180.
The mark [15] stands for this setting: Table 2, G* 3.0 μg/ml, PFA 80 μg/ml.
[16] abbreviates: Table 3, G* 2.0 μg/ml, PAA 90 μg/ml.

Method for HSV-1-227: (§1) Human fetal fibroblasts (HFF) derived from fetal tissues were used in this study. Cells were grown and maintained in Basal Medium Eagle (BME) supplemented with 0.112% sodium bicarbonate, 2mML-glutamine, 2mg % Neomycin and 20% (vol/vol) calf serum.
(§2) HSV-2-EL 1, HSV-2-EL 3, HSV-2-EL 4, HSV-2-EL 6, HSV-1-EL 11 and HSV-1-227 are recent clinical isolates.
(§3) A viral plaque titration method (Roizman and Roane, 1961) was used to deteremine the titer of the HSV strain. Tissue culture dishes (35 by 10mm, Corning) were seeded with cells and used for assays when they were approximately 75% monolayer. Volumes (0.2ml) of logarithmic dilutions of the virus strain were inoculated onto each of two tissue culture dishes and adsorbed for 1 hr with intermittent shaking, the inoculum was removed and 2ml of 20% BME containing 0.5% human immune serum globulin was added. After a 48 hr. incubation period at 36° C. in a 5% CO2 atmosphere, the overlay medium was removed, and the cell sheets were stained with a 0.05% aqueous crystal violet solution. The plaque numbers were counted with the aid of a Nikon profile projector which magnified the dishes 10X. Duplicate results were averaged, and the number of plaque-forming units (PFU) was calculated. The virus titre is thus expressed as a number of plaque forming units to be seen after growth under these conditions.
(§4) Then combinations of the drugs were tested for activity by viral plaque titration, at concentrations which were multiples of the ED-50, of the individual drugs. In combinations involving G*, BVDU and AGC, a concentration ten times that of its ED-50 was used in the combination. This was intended to ensure a concentration sufficiently high to limit the number of partially drug-resistant virus plaques to a small fraction in respect of each drug of the combination. In respect of PAA, a concentration of five times ED-50 was used, to avoid cell toxicity problems. The drugs were individually plaque titrated at the same concentrations for comparison purposes.
(§5) The experiments described in Examples 1 and 2 were essentially repeated, but using the drugs G* and PAA alone and in combinations against samples of HFF cells each infected with one of six HSV strains, two of which were type 1 and four of which were type 2. Plaque titration methods as described above were used.
Method for HSV-1-EL 11: as §1, §2, §3, §4, §5
Method for HSV-1-Patton: as §1, §3
As antiviral drugs in these experiments, there were used acycloguanosine (ACG), phosphonoacetic acid (PAA), bromovinyl deoxyuridine (BVDU), phosphonoformic acid (PFA) and 9-[[2-hydroxy-1-(hydroxymethyl)ethoxy]methyl]guanine (G*). Stock solutions, 3mg/ml, of each drug were prepared as follows, kept at -20° C., and appropriate dilutions thereof were made in 20% BME just before usage:
In order to make comparisons between the activities of the various drugs and combinations, experiments were conducted by plaque titration to determine for each drug its viral ED-50 (i.e. the concentration thereof which inhibits HSV plaque formation by 50% in the HFF cells, as compared with cell cultures in the absence of the drug). For this purpose, tissue culture dishes (35 by 10 mm) with HFF cell monolayers at 75% confluence were inoculated with approximately 50 plaque-forming units of virus per 0.2 ml, and the virus was allowed to adsorb for 1 hr with intermittent shaking. After removal of the inoculum, 2 ml of 20% BME with 0.5% immune globulin and threefold dilutions of the appropriate drug were added to duplicate dishes. One set of dishes received no drug and was later used for the "no-drug control". After a 48 hr incubation period at 36° C. in a 5% CO2 atmosphere, the overlay medium was removed, the cells were stained as described above, and plaques were counted. After averaging the counts of duplicate plates, the fraction of plaques emerging in the presence of each drug dilution was calculated as a percent of the control. Each drug titration was plotted on semilogarithmic graph paper, with the number of plaques per dish as vertical axis and the drug concentration as horizontal axis. The viral ED-50 concentration was that amount of drug per ml of overlay medium that inhibited plaque numbers by 50%, compared with no-drug controls, and this was read off the graphic plot of the data.
Then combinations of the drugs were tested for activity by viral plaque titration, at concentrations which were multiples of the ED-50, of the individual drugs. In combinations involving G*, BVDU and AGC, a concentration ten times that of its ED-50 was used in the combination. […] In respect of PAA, a concentration of five times ED-50 was used, to avoid cell toxicity problems.
Method for HSV-2-EL 1: as §1, §2, §3, §4, §5
Method for HSV-2-EL 3: as §1, §2, §3, §4, §5
Method for HSV-2-EL 4: as §1, §2, §3, §4
(§6) In this example, combinations of G* and phosphonoformic acid PFA were tested, by plaque titration methods, for activity against a variety of herpesvirus strains in HFF cells, using procedures previously described. A stock solution of PFA was made up ahead of time, by dissolving 3 mg PFA in 1 ml of 20% BME, and stored at -20° C. It was appropriately diluted in 20% BME just before usage. Two herpesvirus type 2 strains and one herpesvirus type 1 strain were tested.
as §5
Method for HSV-2-EL 6: as §1, §2, §3, §4, §6, §5

Take `O=CC[C@@H](O)[C@H](O)[C@H](O)CO` [2DB, 2-deoxy-D-glucose]: the “Activity against herpesviruses in prior art” value (from here on “Activity against herpesviruses”) in the data set on human herpesviruses is “some demonstrated activity against human herpesviruses”.
Regarding `Nc1nc2c(ncn2COCCO)c(=O)[nH]1` [ACG, 9-[2-hydroxyethoxymethyl]guanine], in the data set with HSV-1-Patton (setting [7]), the Virus titer is listed as 4.7 PFU/ml × 10^5. In addition, the Fold titer reduction in the data set on HSV-1-Patton (setting [8]) stood at 31 fold. The “Resistance of DP-mutants of HSV to drug” value in data set [1] is listed as “highly resistant”. In the data set with normal host cells, the “Toxicity for uninfected cells” value is “relatively low toxicity for uninfected cells”. In data set [2], the “Interaction with viral DNA polymerase” value is “inhibits the action of the herpes virus-specific DNA-polymerase (DP)”. The “Effect on cellular TK and DP enzymes” value in data set [3] was “only slightly affected”. For the same compound, the “Interaction with viral thymidine kinase” value in data set [4] is listed as “interaction with the herpes virus-specific thymidine kinase (TK) resulting in phosphorylation of the acycloguanosine”. Further, the “Activity against herpesviruses” value in the data set with human herpesviruses is listed as “relatively high antiviral activity”.
With `O=c1[nH]c(=O)n([C@H]2C[C@H](O)[C@@H](CO)O2)cc1/C=C/Br` [BVDU, bromovinyl deoxyuridine], the Virus titer in the data set on HSV-1-Patton (setting [7]) is 2.1 PFU/ml × 10^5. The Fold titer reduction in the data set with HSV-1-Patton (setting [8]) is listed as 70 fold.
With `Nc1nc2c(ncn2COC(CO)CO)c(=O)[nH]1` [G*], the Fold titer reduction is reported as 19 fold in the data set on HSV-2-EL 1; 7.7 fold with HSV-2-EL 3; 130 fold in the data set on HSV-1-Patton (setting [8]); 24 fold in the data set on HSV-1-Patton (setting [9]); 110 fold in the data set with HSV-1-227; 3.8 fold with HSV-2-EL 6 (setting [11]). Also, the Fold titer reduction in the data set on HSV-2-EL 6 (setting [13]) is on record as 200 fold; in the data set on HSV-2-EL 4 (setting [15]) it was 36 fold; in the data set with HSV-2-EL 4 (setting [16]), 130 fold; with HSV-1-EL 11, 22 fold. The Virus titer in the data set with HSV-2-EL 1 came to 8.9 pfu/ml × 10^5; with HSV-2-EL 3 it was 10.0 pfu/ml × 10^5; in the data set on HSV-1-Patton (setting [7]) it was 1.1 PFU/ml × 10^5; with HSV-1-Patton (setting [10]), 140 pfu/ml × 10^5; in the data set with HSV-1-227, 0.25 pfu/ml × 10^5; in the data set on HSV-2-EL 6 (setting [12]), 40 pfu/ml × 10^5. For the same compound, the Virus titer in the data set on HSV-2-EL 6 (setting [14]) was determined as 0.90 pfu/ml × 10^5; with HSV-2-EL 4 (setting [15]) it was 21 pfu/ml × 10^5; in the data set with HSV-2-EL 4 (setting [16]), 5.9 pfu/ml × 10^5; with HSV-1-EL 11, 0.37 pfu/ml × 10^5. The “Interaction with viral DNA polymerase” value in [2] is listed as “not involved in the activity of virus-specific DNA-polymerase”. The “Inhibition of DP-mutants of HSV” value in [5] was “able to inhibit HSV mutants lacking the ability to induce DP”. Moreover, in data set [4], the “Interaction with viral thymidine kinase” value was “inhibits the activity of the viral thymidine kinase enzyme”.
Consider `O=c1[nH]c(=O)n([C@H]2C[C@H](O)[C@@H](CO)O2)cc1I` [IDU, 5-iododeoxyuridine], for which the “Side effects / toxicity to normal cells” value in the data set with normal host cells (prior art) was “undesirable side effects, associated with toxicity to normal cells”. Besides, the “Activity against herpesviruses” value in the data set with human herpesviruses is “effective only against herpes infections of the eyes”.
Regarding `O=C(O)CP(=O)(O)O` [PAA, phosphonoacetic acid], the Fold titer reduction with HSV-2-EL 1 stood at 500 fold; in the data set with HSV-2-EL 3, 210 fold; in the data set on HSV-1-Patton (setting [8]), 50 fold; with HSV-1-227, 26 fold; in the data set on HSV-2-EL 6 (setting [13]) it was 5.8 fold; in the data set on HSV-2-EL 4 (setting [16]) it was 7500 fold. Moreover, in the data set on HSV-1-EL 11, the Fold titer reduction was 2.9 fold. For the same compound, the Virus titer in the data set with HSV-2-EL 1 is reported as 0.34 pfu/ml × 10^5; in the data set with HSV-2-EL 3, 0.36 pfu/ml × 10^5; in the data set with HSV-1-Patton (setting [7]), 3.2 PFU/ml × 10^5; in the data set with HSV-1-227, 1.1 pfu/ml × 10^5; with HSV-2-EL 6 (setting [14]), 31.0 pfu/ml × 10^5; in the data set with HSV-2-EL 4 (setting [16]), 0.10 pfu/ml × 10^5. Moreover, the Virus titer in the data set with HSV-1-EL 11 came to 2.8 pfu/ml × 10^5. Also, in [1], the “Resistance of DP-mutants of HSV to drug” value is reported as “highly resistant”. For the same compound, the “Interaction with viral DNA polymerase” value in data set [2] is on record as “interference with viral DNA polymerase, not viral thymidine kinase”. Further, the “Skin irritation” value in [6] was “skin irritant”. Besides, in the data set with human herpesviruses, the “Activity against herpesviruses” value is listed as “some demonstrated activity against human herpesviruses”.
`O=C(O)P(=O)(O)O` [PFA, phosphonoformic acid]: the Fold titer reduction is given as 4.5 fold in the data set with HSV-1-Patton (setting [9]); 750 fold in the data set with HSV-1-Patton (Table 2, G* 0.7 μg/ml, PFA 80 μg/ml, alone or combined, listed as PFF); 3.1 fold with HSV-2-EL 6 (setting [11]); 2,700 fold with HSV-2-EL 4 (setting [15]). Moreover, the values for the Virus titer with HSV-1-Patton (setting [10]), with HSV-2-EL 6 (setting [12]) and in the data set on HSV-2-EL 4 (setting [15]) were 750 pfu/ml × 10^5, 48 pfu/ml × 10^5 and 0.28 pfu/ml × 10^5, respectively. In data set [2], the “Interaction with viral DNA polymerase” value is reported as “interference with viral DNA polymerase, not viral thymidine kinase”. Besides, in data set [6], the “Skin irritation” value was “do not appear harmful”. Also, in the data set with human herpesviruses, the “Activity against herpesviruses” value is reported as “some demonstrated activity against human herpesviruses”.
For the compound `Nc1ncnc2c1ncn2[C@@H]1O[C@H](CO)[C@@H](O)[C@@H]1O` [ara-A, Adenine arabinoside], the “Activity against herpesviruses” value in the data set with human herpesviruses was “some demonstrated activity against human herpesviruses”.

(Values after patent US4902678A, “Anti-viral compositions” (priority 1988, dated 1990).)
